target: BRD4 (Homo sapiens, UniProt O60885); assay: Time Resolved Fluorescence Resonance Energy Transfer (TR-FRET) binding assay, BRD4; conditions: FRET BRD4 IC50 (nM), one of the FRET assays described

| Compound | IC50 |
| --- | --- |
| Cn1nnc(Br)c1-c1cnc2c3ccc(C(C)(C)O)cc3n([C@H](c3ccccc3)C3CCOCC3)c2c1 [Example 384, 2-[3-(4-Bromo-1-methyl-1H-1,2,3-triazol-5-yl)-5-[(S)-oxan-4-yl(phenyl)methyl]-5H-pyrido[3,2-b]indol-7-yl]propan-2-ol] | < 5 nM |
| Cn1nnc(Cl)c1-c1cnc2c3ccc(C(C)(C)O)cc3n([C@H](c3ccccc3)C3CCOCC3)c2c1 [Example 387, 2-[3-(4-Chloro-1-methyl-1H-1,2,3-triazol-5-yl)-5-[(S)-oxan-4-yl(phenyl)methyl]-5H-pyrido[3,2-b]indol-7-yl]propan-2-ol] | < 5 nM |

same assay, conditions: one of the FRET assays described; read-out: FRET BRD4 IC50

| Compound | IC50 |
| --- | --- |
| COc1c(C(C)(C)O)ccc2c3ncc(-c4c(C)nnn4C)cc3n([C@H](c3ccccc3)C3CCOCC3)c12 [Example 355, 2-[3-(Dimethyl-1H-1,2,3-triazol-5-yl)-6-methoxy-5-[(S)-oxan-4-yl(phenyl)methyl]-5H-pyrido[3,2-b]indol-7-yl]propan-2-ol] | < 5 nM |
| C=C(C)c1ccc2c3ncc(-c4c(C)nnn4C)cc3n([C@H](c3ccccc3)C3CCOCC3)c2c1CO [Example 356, [3-(Dimethyl-1H-1,2,3-triazol-5-yl)-5-[(S)-oxan-4-yl(phenyl)methyl]-7-(prop-1-en-2-yl)-5H-pyrido[3,2-b]indol-6-yl]methanol] | < 5 nM |
| Cc1nnn(C)c1-c1cnc2c3ccc(NC(=O)OCCC(F)(F)F)cc3n([C@H](c3ccccc3)C3CCOCC3)c2c1 [Example 364, 3,3,3-Trifluoropropyl N-[3-(dimethyl-1H-1,2,3-triazol-5-yl)-5-[(S)-oxan-4-yl(phenyl)methyl]-5H-pyrido[3,2-b]indol-7-yl]carbamate] | < 5 nM |
| COC(=O)Nc1ccc2c3ncc(-c4c(C)nnn4C)cc3n([C@H](c3ccccc3)C3CCOCC3)c2c1 [Example 365, Methyl N-[3-(dimethyl-1H-1,2,3-triazol-5-yl)-5-[(S)-oxan-4-yl(phenyl)methyl]-5H-pyrido[3,2-b]indol-7-yl]carbamate] | < 5 nM |
| CCOC(=O)Nc1ccc2c3ncc(-c4c(C)nnn4C)cc3n([C@H](c3ccccc3)C3CCOCC3)c2c1 [Example 366, Ethyl N-[3-(dimethyl-1H-1,2,3-triazol-5-yl)-5-[(S)-oxan-4-yl(phenyl)methyl]-5H-pyrido[3,2-b]indol-7-yl]carbamate] | < 5 nM |
| Cc1nnn(C)c1-c1cnc2c3ccc(NC(=O)OC(C)C)cc3n([C@H](c3ccccc3)C3CCOCC3)c2c1 [Example 367, Propan-2-yl N-[3-(dimethyl-1H-1,2,3-triazol-5-yl)-5-[(S)-oxan-4-yl(phenyl)methyl]-5H-pyrido[3,2-b]indol-7-yl]carbamate] | < 5 nM |
| Cc1nnn(C)c1-c1cnc2c3c(F)cc(C(C)(C)O)cc3n([C@H](c3ccccc3)C3CCOCC3)c2c1 [Example 369, 2-[3-(Dimethyl-1H-1,2,3-triazol-5-yl)-9-fluoro-5-[(S)-oxan-4-yl(phenyl)methyl]-5H-pyrido[3,2-b]indol-7-yl]propan-2-ol] | < 5 nM |
| Cc1noc(C)c1-c1cnc2c3c(F)cc(C(C)(C)O)cc3n([C@H](c3ccccc3)C3CCOCC3)c2c1 [Example 370, 2-[3-(Dimethyl-1,2-oxazol-4-yl)-9-fluoro-5-[(S)-oxan-4-yl(phenyl)methyl]-5H-pyrido[3,2-b]indol-7-yl]propan-2-ol] | < 5 nM |
| Cc1nnn(C)c1-c1cnc2c3cc(S(C)(=O)=O)ccc3n([C@H](c3ccccc3)C3CCOCC3)c2c1 [Example 375, 5-{8-Methanesulfonyl-5-[(S)-oxan-4-yl(phenyl)methyl]-5H-pyrido[3,2-b]indol-3-yl}-1,4-dimethyl-1H-1,2,3-triazole] | < 5 nM |
| Cc1nnn(C)c1-c1cnc2c3cccc(S(C)(=O)=O)c3n([C@H](c3ccccc3)C3CCOCC3)c2c1 [Example 376, 5-{6-Methanesulfonyl-5-[(S)-oxan-4-yl(phenyl)methyl]-5H-pyrido[3,2-b]indol-3-yl}-1,4-dimethyl-1H-1,2,3-triazole] | < 5 nM |
| Cc1nnn(C)c1-c1cnc2c3cccc(S(C)(=O)=O)c3n([C@@H](CCC(F)(F)F)c3ccccc3)c2c1 [Example 377, 5-{6-Methanesulfonyl-5-[(1S)-4,4,4-trifluoro-1-phenylbutyl]-5H-pyrido[3,2-b]indol-3-yl}-1,4-dimethyl-1H-1,2,3-triazole] | < 5 nM |
| [2H]C([2H])([2H])Oc1nnn(C)c1-c1cnc2c3ccc(C(C)(C)O)cc3n([C@H](c3ccccc3)C3CCOCC3)c2c1 [Example 378, 2-{3-[4-(^2H3)Methoxy-1-methyl-1H-1,2,3-triazol-5-yl]-5-[(S)-oxan-4-yl(phenyl)methyl]-5H-pyrido[3,2-b]indol-7-yl}propan-2-ol] | < 5 nM |
| COc1nnn(C)c1-c1cnc2c3ccc(C(C)(C)O)cc3n([C@H](c3ccccc3)C3CCOCC3)c2c1 [Example 379, 2-[3-(4-Methoxy-1-Methyl-1H-1,2,3-triazol-5-yl)-5-[(S)-oxan-4-yl(phenyl)methyl]-5H-pyrido[3,2-b]indol-7-yl]propan-2-ol] | < 5 nM |
| [2H]C([2H])([2H])Oc1nnn(C([2H])([2H])[2H])c1-c1cnc2c3ccc(C(C)(C)O)cc3n([C@H](c3ccccc3)C3CCOCC3)c2c1 [Example 380, 2-{3-[4-(^2H3)Methoxy-1-(^2H3)methyl-1H-1,2,3-triazol-5-yl]-5-[(S)-oxan-4-yl(phenyl)methyl]-5H-pyrido[3,2-b]indol-7-yl}propan-2-ol] | < 5 nM |
| [2H]C([2H])([2H])n1nnc(OC)c1-c1cnc2c3ccc(C(C)(C)O)cc3n([C@H](c3ccccc3)C3CCOCC3)c2c1 [Example 381, 2-{3-[4-Methoxy-1-(^2H3)methyl-1H-1,2,3-triazol-5-yl]-5-[(S)-oxan-4-yl(phenyl)methyl]-5H-pyrido[3,2-b]indol-7-yl}propan-2-ol] | < 5 nM |
| CCOc1nnn(C)c1-c1cnc2c3ccc(C(C)(C)O)cc3n([C@H](c3ccccc3)C3CCOCC3)c2c1 [Example 382, 2-[3-(4-Ethoxy-1-methyl-1H-1,2,3-triazol-5-yl)-5-[(S)-oxan-4-yl(phenyl)methyl]-5H-pyrido[3,2-b]indol-7-yl]propan-2-ol] | < 5 nM |
| Cn1nnc(Br)c1-c1cnc2c3cc(Br)c(C(C)(C)O)cc3n([C@H](c3ccccc3)C3CCOCC3)c2c1 [Example 383, 2-[8-Bromo-3-(4-bromo-1-methyl-1H-1,2,3-triazol-5-yl)-5-[(S)-oxan-4-yl(phenyl)methyl]-5H-pyrido[3,2-b]indol-7-yl]propan-2-ol] | < 5 nM |
| Cn1nnc(C2CC2)c1-c1cnc2c3ccc(C(C)(C)O)cc3n([C@H](c3ccccc3)C3CCOCC3)c2c1 [Example 385, 2-[3-(4-Cyclopropyl-1-methyl-1H-1,2,3-triazol-5-yl)-5-[(S)-oxan-4-yl(phenyl)methyl]-5H-pyrido[3,2-b]indol-7-yl]propan-2-ol] | < 5 nM |
| Cn1nnc(Cl)c1-c1cnc2c3cc(Cl)c(C(C)(C)O)cc3n([C@H](c3ccccc3)C3CCOCC3)c2c1 [Example 386, 2-[8-Chloro-3-(4-chloro-1-methyl-1H-1,2,3-triazol-5-yl)-5-[(S)-oxan-4-yl(phenyl)methyl]-5H-pyrido[3,2-b]indol-7-yl]propan-2-ol] | < 5 nM |
| CCc1nnn(C)c1-c1cnc2c3ccc(C(C)(C)O)cc3n([C@H](c3ccccc3)C3CCOCC3)c2c1 [Example 388, 2-[3-(4-Ethyl-1-methyl-1H-1,2,3-triazol-5-yl)-5-[(S)-oxan-4-yl(phenyl)methyl]-5H-pyrido[3,2-b]indol-7-yl]propan-2-ol] | < 5 nM |
| Cn1nnc(N)c1-c1cnc2c3ccc(C(C)(C)O)cc3n([C@H](c3ccccc3)C3CCOCC3)c2c1 [Example 389, 2-[3-(4-Amino-1-methyl-1H-1,2,3-triazol-5-yl)-5-[(S)-oxan-4-yl(phenyl)methyl]-5H-pyrido[3,2-b]indol-7-yl]propan-2-ol] | < 5 nM |
| CNc1nnn(C)c1-c1cnc2c3ccc(C(C)(C)O)cc3n([C@H](c3ccccc3)C3CCOCC3)c2c1 [Example 390, 2-{3-[1-Methyl-4-(methylamino)-1H-1,2,3-triazol-5-yl]-5-[(S)-oxan-4-yl(phenyl)methyl]-5H-pyrido[3,2-b]indol-7-yl}propan-2-ol] | < 5 nM |
| COc1nnn(C)c1-c1cnc2c3ccc(S(C)(=O)=O)cc3n([C@H](c3ccccc3)C3CCOCC3)c2c1 [Example 391, 5-{7-Methanesulfonyl-5-[(S)-oxan-4-yl(phenyl)methyl]-5H-pyrido[3,2-b]indol-3-yl}-4-methoxy-1-methyl-1H-1,2,3-triazole] | < 5 nM |
| [2H]C([2H])([2H])Oc1nnn(C)c1-c1cnc2c3ccc(NC(=O)OC(C)C)cc3n([C@H](c3ccccc3)C3CCOCC3)c2c1 [Example 392, Propan-2-yl N-{3-[4-(^2H3)methoxy-1-methyl-1H-1,2,3-triazol-5-yl]-5-[(S)-oxan-4-yl(phenyl)methyl]-5H-pyrido[3,2-b]indol-7-yl}carbamate] | < 5 nM |
| [2H]C([2H])([2H])c1nnn(C)c1-c1cnc2c3ccc(C(C)(C)O)c(Cl)c3n([C@H](c3ccccc3)C3CCOCC3)c2c1 [Example 393, 2-{6-Chloro-3-[4-(^2H3)methyl-1-methyl-1H-1,2,3-triazol-5-yl]-5-[(S)-oxan-4-yl(phenyl)methyl]-5H-pyrido[3,2-b]indol-7-yl}propan-2-ol] | < 5 nM |
| Cc1nnn(C)c1-c1cnc2c3ccc(CO)cc3n([C@H](c3ccccc3)C3CCOCC3)c2c1 [Example 405, [3-(Dimethyl-1H-1,2,3-triazol-5-yl)-5-[(S)-oxan-4-yl(phenyl)methyl]-5H-pyrido[3,2-b]indol-7-yl]methanol] | < 5 nM |
| [2H]C([2H])(O)c1ccc2c3ncc(-c4c(C)nnn4C)cc3n([C@H](c3ccccc3)C3CCOCC3)c2c1 [Example 407, [3-(Dimethyl-1H-1,2,3-triazol-5-yl)-5-[(S)-oxan-4-yl(phenyl)methyl]-5H-pyrido[3,2-b]indol-7-yl](^2H2)methanol] | < 5 nM |
| Cc1nnn(C)c1-c1cnc2c3ccc(C(O)(C4CC4)C4CC4)cc3n([C@H](c3ccccc3)C3CCOCC3)c2c1 [Example 408, Dicyclopropyl[3-(dimethyl-1H-1,2,3-triazol-5-yl)-5-[(S)-oxan-4-yl(phenyl)methyl]-5H-pyrido[3,2-b]indol-7-yl]methanol] | < 5 nM |

Reference: patent publication US10112941B2, “Tricyclic compounds as anticancer agents” (BRISTOL-MYERS SQUIBB COMPANY, priority 2013, dated 2018)
